From patent US6645918B1, “N-([1,2,4]triazoloazinyl)thiophenesulfonamide compounds and their use as herbicides” (Dow AgroSciences LLC, priority 2000, dated 2003)

Legend:
[1] = tested on: pigweed (Amaranthus retroflexus); experiment: Preemergence herbicidal activity, pigweed; assay type: in vivo; settings: soil spray, visual after 3 weeks, 0 no injury, 100 complete kill or no germination
How it was run: (§1)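 Test compounds are sprayed pre-emergence onto soil in seeded pots (highest rate 4.48 kg/ha) using an aqueous surfactant carrier, and the plants are grown in a greenhouse for 3 weeks. Injury is then rated by eye, 0 to 100%, against untreated plants.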

[2] = tested on: wild buckwheat (Polygonum convolvulus); experiment: Postemergence herbicidal activity, wild buckwheat; assay type: in vivo; settings: foliar spray, visual after 2 weeks, 0 no injury, 100 complete kill
How it was run: (§2)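 Visual injury, rated 0–100% against untreated plants 2 weeks after treatment, is the read-out. Compound was sprayed to thorough coverage on seedlings at the first or second true leaf stage, with application rates where 1 ppm equals roughly 1 g/ha.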

[3] = tested on: blackgrass (Alopecurus myosuroides); experiment: Preemergence herbicidal activity, blackgrass; assay type: in vivo; settings: soil spray, visual after 3 weeks, 0 no injury, 100 complete kill or no germination
How it was run: as §1

[4] = tested on: wild poinsettia (Euphorbia heterophylla); experiment: Preemergence herbicidal activity, wild poinsettia; assay type: in vivo; settings: soil spray, visual after 3 weeks, 0 no injury, 100 complete kill or no germination
How it was run: as §1

[5] = tested on: velvetleaf (Abutilion theophrasti); experiment: Preemergence herbicidal activity, velvetleaf; assay type: in vivo; settings: soil spray, visual after 3 weeks, 0 no injury, 100 complete kill or no germination
How it was run: as §1

[6] = tested on: lambsquarters (Chenopodium album); experiment: Postemergence herbicidal activity, lambsquarters; assay type: in vivo; settings: foliar spray, visual after 2 weeks, 0 no injury, 100 complete kill
How it was run: as §2

[7] = tested on: Rox orange sorghum (Sorghum bicolor); experiment: Postemergence herbicidal activity, Rox orange sorghum; assay type: in vivo; settings: foliar spray, visual after 2 weeks, 0 no injury, 100 complete kill
How it was run: as §2

[8] = tested on: cocklebur (Xanthium strumarium); experiment: Preemergence herbicidal activity, cocklebur; assay type: in vivo; settings: soil spray, visual after 3 weeks, 0 no injury, 100 complete kill or no germination
How it was run: as §1

[9] = tested on: giant foxtail (Setaria faberi); experiment: Postemergence herbicidal activity, giant foxtail; assay type: in vivo; settings: foliar spray, visual after 2 weeks, 0 no injury, 100 complete kill
How it was run: as §2

[10] = tested on: velvetleaf (Abutilion theophrasti); experiment: Postemergence herbicidal activity, velvetleaf; assay type: in vivo; settings: foliar spray, visual after 2 weeks, 0 no injury, 100 complete kill
How it was run: as §2

[11] = tested on: morningglory (Ipomoea hederacea); experiment: Preemergence herbicidal activity, morningglory; assay type: in vivo; settings: soil spray, visual after 3 weeks, 0 no injury, 100 complete kill or no germination
How it was run: as §1

[12] = tested on: chickweed (Stellaria media); experiment: Postemergence herbicidal activity, chickweed; assay type: in vivo; settings: foliar spray, visual after 2 weeks, 0 no injury, 100 complete kill
How it was run: as §2

[13] = tested on: crabgrass (Digitaria sanguinalis); experiment: Preemergence herbicidal activity, crabgrass; assay type: in vivo; settings: soil spray, visual after 3 weeks, 0 no injury, 100 complete kill or no germination
How it was run: as §1

[14] = tested on: barnyardgrass (Echinochloa crus-galli); experiment: Preemergence herbicidal activity, barnyardgrass; assay type: in vivo; settings: soil spray, visual after 3 weeks, 0 no injury, 100 complete kill or no germination
How it was run: as §1

viola (Viola tricolor) = experiment: Postemergence herbicidal activity, viola; assay type: in vivo; settings: foliar spray, visual after 2 weeks, 0 no injury, 100 complete kill
How it was run: as §2

wild oats (Avena fatua) [15] = experiment: Postemergence herbicidal activity, wild oats; assay type: in vivo; settings: foliar spray, visual after 2 weeks, 0 no injury, 100 complete kill
How it was run: as §2

wild oats (Avena fatua) [16] = experiment: Preemergence herbicidal activity, wild oats; assay type: in vivo; settings: soil spray, visual after 3 weeks, 0 no injury, 100 complete kill or no germination
How it was run: as §1

[17] = tested on: lambsquarters (Chenopodium album); experiment: Preemergence herbicidal activity, lambsquarters; assay type: in vivo; settings: soil spray, visual after 3 weeks, 0 no injury, 100 complete kill or no germination
How it was run: as §1

[18] = tested on: pigweed (Amaranthus retroflexus); experiment: Postemergence herbicidal activity, pigweed; assay type: in vivo; settings: foliar spray, visual after 2 weeks, 0 no injury, 100 complete kill
How it was run: as §2

[19] = tested on: cocklebur (Xanthium strumarium); experiment: Postemergence herbicidal activity, cocklebur; assay type: in vivo; settings: foliar spray, visual after 2 weeks, 0 no injury, 100 complete kill
How it was run: as §2

[20] = tested on: giant foxtail (Setaria faberi); experiment: Preemergence herbicidal activity, giant foxtail; assay type: in vivo; settings: soil spray, visual after 3 weeks, 0 no injury, 100 complete kill or no germination
How it was run: as §1

[21] = tested on: blackgrass (Alopecurus myosuroides); experiment: Postemergence herbicidal activity, blackgrass; assay type: in vivo; settings: foliar spray, visual after 2 weeks, 0 no injury, 100 complete kill
How it was run: as §2

[22] = tested on: morningglory (Ipomoea hederacea); experiment: Postemergence herbicidal activity, morningglory; assay type: in vivo; settings: foliar spray, visual after 2 weeks, 0 no injury, 100 complete kill
How it was run: as §2

[23] = tested on: Rox orange sorghum (Sorghum bicolor); experiment: Preemergence herbicidal activity, Rox orange sorghum; assay type: in vivo; settings: soil spray, visual after 3 weeks, 0 no injury, 100 complete kill or no germination
How it was run: as §1

SMILES: CCOc1cscc1S(=O)(=O)Nc1nc2c(OC)ccc(OC)n2n1 [Compound 11]
- AMARE preemergence injury score 0-100 ([1]; 4.4 g/Ha): 90%
- POLCO postemergence injury score 0-100 ([2]; 15.6 ppm): 80%
- ALOMY preemergence injury score 0-100 ([3]; 4.4 g/Ha): 100%
- EPHHL preemergence injury score 0-100 ([4]; 4.4 g/Ha): 50%
- ABUTH preemergence injury score 0-100 ([5]; 4.4 g/Ha): 80%
- CHEAL postemergence injury score 0-100 ([6]; 15.6 ppm): 95%
- SORBI postemergence injury score 0-100 ([7]; 15.6 ppm): 90%
- XANST preemergence injury score 0-100 ([8]; 4.4 g/Ha): 50%
- SETFA postemergence injury score 0-100 ([9]; 15.6 ppm): 100%
- ABUTH postemergence injury score 0-100 ([10]; 15.6 ppm): 85%
- IPOHE preemergence injury score 0-100 ([11]; 4.4 g/Ha): 30%
- STEME postemergence injury score 0-100 ([12]; 15.6 ppm): 80%
- DIGSA preemergence injury score 0-100 ([13]; 4.4 g/Ha): 40%
- ECHCG preemergence injury score 0-100 ([14]; 4.4 g/Ha): 10%
- VIOTR postemergence injury score 0-100 (viola (Viola tricolor); 15.6 ppm): 75%
- AVEFA postemergence injury score 0-100 (wild oats (Avena fatua) [15]; 15.6 ppm): 85%
- AVEFA preemergence injury score 0-100 (wild oats (Avena fatua) [16]; 4.4 g/Ha): 70%
- CHEAL preemergence injury score 0-100 ([17]; 4.4 g/Ha): 95%
- AMARE postemergence injury score 0-100 ([18]; 15.6 ppm): 100%
- XANST postemergence injury score 0-100 ([19]; 15.6 ppm): 90%
- SETFA preemergence injury score 0-100 ([20]; 4.4 g/Ha): 100%
- ALOMY postemergence injury score 0-100 ([21]; 15.6 ppm): 75%
- IPOHE postemergence injury score 0-100 ([22]; 15.6 ppm): 70%
- SORBI preemergence injury score 0-100 ([23]; 4.4 g/Ha): 98%

SMILES: COc1cnc(OC)n2nc(NS(=O)(=O)c3ccsc3CC(=O)O)nc12 [Compound 6, N-(5,8-dimethoxy[1,2,4]triazolo[1,5-c]pyrimidin-2-yl)-2-carboxymethylthiophene-3-sulfonamide]
- AMARE preemergence injury score 0-100 ([1]; 35 g/Ha): 100%
- POLCO postemergence injury score 0-100 ([2]; 7.8 ppm): 85%
- ALOMY preemergence injury score 0-100 ([3]; 35 g/Ha): 75%
- EPHHL preemergence injury score 0-100 ([4]; 35 g/Ha): 70%
- ABUTH preemergence injury score 0-100 ([5]; 35 g/Ha): 80%
- CHEAL postemergence injury score 0-100 ([6]; 7.8 ppm): 80%
- SORBI postemergence injury score 0-100 ([7]; 7.8 ppm): 80%
- XANST preemergence injury score 0-100 ([8]; 35 g/Ha): 70%
- SETFA postemergence injury score 0-100 ([9]; 7.8 ppm): 98%
- ABUTH postemergence injury score 0-100 ([10]; 7.8 ppm): 90%
- IPOHE preemergence injury score 0-100 ([11]; 35 g/Ha): 80%
- STEME postemergence injury score 0-100 ([12]; 7.8 ppm): 80%
- DIGSA preemergence injury score 0-100 ([13]; 35 g/Ha): 100%
- ECHCG preemergence injury score 0-100 ([14]; 35 g/Ha): 80%
- VIOTR postemergence injury score 0-100 (viola (Viola tricolor); 7.8 ppm): 85%
- AVEFA postemergence injury score 0-100 (wild oats (Avena fatua) [15]; 7.8 ppm): 70%
- AVEFA preemergence injury score 0-100 (wild oats (Avena fatua) [16]; 35 g/Ha): 80%
- CHEAL preemergence injury score 0-100 ([17]; 35 g/Ha): 99%
- AMARE postemergence injury score 0-100 ([18]; 7.8 ppm): 100%
- XANST postemergence injury score 0-100 ([19]; 7.8 ppm): 95%
- SETFA preemergence injury score 0-100 ([20]; 35 g/Ha): 100%
- ALOMY postemergence injury score 0-100 ([21]; 7.8 ppm): 80%
- IPOHE postemergence injury score 0-100 ([22]; 7.8 ppm): 85%
- SORBI preemergence injury score 0-100 ([23]; 35 g/Ha): 100%

SMILES: COc1ccsc1S(=O)(=O)Nc1nc2c(OC)cnc(OC)n2n1 [Compound 1, 3-Methoxy-N-(5,8-dimethoxy[1,2,4]triazolo[1,5-c]pyrimidin-2-yl)thiophene-2-sulfonamide]
- AMARE preemergence injury score 0-100 ([1]; 17.5 g/Ha): 100%
- POLCO postemergence injury score 0-100 ([2]; 3.9 ppm): 98%
- ALOMY preemergence injury score 0-100 ([3]; 17.5 g/Ha): 100%
- EPHHL preemergence injury score 0-100 ([4]; 17.5 g/Ha): 100%
- ABUTH preemergence injury score 0-100 ([5]; 17.5 g/Ha): 98%
- CHEAL postemergence injury score 0-100 ([6]; 3.9 ppm): 75%
- SORBI postemergence injury score 0-100 ([7]; 3.9 ppm): 98%
- XANST preemergence injury score 0-100 ([8]; 17.5 g/Ha): 70%
- SETFA postemergence injury score 0-100 ([9]; 3.9 ppm): 100%
- ABUTH postemergence injury score 0-100 ([10]; 3.9 ppm): 75%
- IPOHE preemergence injury score 0-100 ([11]; 17.5 g/Ha): 85%
- STEME postemergence injury score 0-100 ([12]; 3.9 ppm): 75%
- melting point: 227 to 228 °C
- DIGSA preemergence injury score 0-100 ([13]; 17.5 g/Ha): 100%
- ECHCG preemergence injury score 0-100 ([14]; 17.5 g/Ha): 100%
- VIOTR postemergence injury score 0-100 (viola (Viola tricolor); 3.9 ppm): 70%
- AVEFA postemergence injury score 0-100 (wild oats (Avena fatua) [15]; 3.9 ppm): 99%
- AVEFA preemergence injury score 0-100 (wild oats (Avena fatua) [16]; 17.5 g/Ha): 100%
- CHEAL preemergence injury score 0-100 ([17]; 17.5 g/Ha): 98%
- AMARE postemergence injury score 0-100 ([18]; 3.9 ppm): 95%
- XANST postemergence injury score 0-100 ([19]; 3.9 ppm): 50%
- SETFA preemergence injury score 0-100 ([20]; 17.5 g/Ha): 100%
- ALOMY postemergence injury score 0-100 ([21]; 3.9 ppm): 95%
- IPOHE postemergence injury score 0-100 ([22]; 3.9 ppm): 85%
- SORBI preemergence injury score 0-100 ([23]; 17.5 g/Ha): 100%
